{"source": "paper PMC5218480", "about": "(PLoS ONE, 2017)", "system": "MV-4-11 cells", "experiment": "Gene expression microarray analysis (Affymetrix PrimeView) and GSEA", "type": "cell-based, human", "parameters": "RFU PODN (11730768_x_at) / Fold change /veh PODN (11730768_x_at) / RFU LINC00158 (11744669_a_at) / Fold change /veh LINC00158 (11744669_a_at) / RFU DUSP10 (11751237_a_at) / Fold change /veh DUSP10 (11751237_a_at) / RFU ID3 (11757404_x_at) / Fold change /veh ID3 (11757404_x_at) / RFU PLEKHG5 (11737974_s_at) / Fold change /veh PLEKHG5 (11737974_s_at) / RFU LRRC4B (11730491_at) / Fold change /veh LRRC4B (11730491_at) / RFU GIMAP4 (11747438_a_at) / Fold change /veh GIMAP4 (11747438_a_at) / RFU KRT8 (11758183_x_at) / Fold change /veh KRT8 (11758183_x_at) / RFU CNN1 (11734310_a_at) / Fold change /veh CNN1 (11734310_a_at) / RFU VPS37D (11726825_at) / Fold change /veh VPS37D (11726825_at) / RFU C10orf10 (11716522_x_at) / Fold change /veh C10orf10 (11716522_x_at) / RFU KIR2DL2 /// KIR2DL4 /// KIR2DL5A /// KIR2DL5B /// KIR2DS1 /// KIR2DS2 /// KIR2DS3 /// KIR2DS4 /// KIR3DL3 /// KIR3DL3 /// KIR3DS1 (11738374_at) / Fold change /veh KIR2DL2 /// KIR2DL4 /// KIR2DL5A /// KIR2DL5B /// KIR2DS1 /// KIR2DS2 /// KIR2DS3 /// KIR2DS4 /// KIR3DL3 /// KIR3DL3 /// KIR3DS1 (11738374_at) / RFU C1QL1 (11718748_at) / Fold change /veh C1QL1 (11718748_at) / RFU TMPRSS4 (11747572_a_at) / Fold change /veh TMPRSS4 (11747572_a_at) / RFU HAMP (11756126_x_at) / Fold change /veh HAMP (11756126_x_at) / RFU RNFT2 (11725882_a_at) / Fold change /veh RNFT2 (11725882_a_at) / RFU NR4A2 (11747474_a_at) / Fold change /veh NR4A2 (11747474_a_at) / RFU ABCC12 (11746883_a_at) / Fold change /veh ABCC12 (11746883_a_at) / RFU TMEM136 (11760407_x_at) / Fold change /veh TMEM136 (11760407_x_at) / RFU CLDN22 /// WWC2 (11732394_at) / Fold change /veh CLDN22 /// WWC2 (11732394_at) / RFU HLA-DPB1 (11760878_x_at) / Fold change /veh HLA-DPB1 (11760878_x_at) / RFU SPINT1 (11716480_a_at) / Fold change /veh SPINT1 (11716480_a_at) / RFU GAP43 (11754022_s_at) / Fold change /veh GAP43 (11754022_s_at) / RFU A4GNT (11735810_at) / Fold change /veh A4GNT (11735810_at) / RFU PRB3 (11715151_x_at) / Fold change /veh PRB3 (11715151_x_at) / RFU TUBB4B (11761932_at) / Fold change /veh TUBB4B (11761932_at) / RFU CAPN14 (11732068_a_at) / Fold change /veh CAPN14 (11732068_a_at) / RFU TMCC2 (11721928_a_at) / Fold change /veh TMCC2 (11721928_a_at) / RFU IRGQ (11745062_a_at) / Fold change /veh IRGQ (11745062_a_at) / RFU FAM174B (11720279_a_at) / Fold change /veh FAM174B (11720279_a_at) / RFU TMPRSS4 (11748680_a_at) / Fold change /veh TMPRSS4 (11748680_a_at) / RFU FAM212B (11763350_a_at) / Fold change /veh FAM212B (11763350_a_at) / RFU PLEKHG5 (11743358_a_at) / Fold change /veh PLEKHG5 (11743358_a_at) / RFU ZSCAN30 (11745921_a_at) / Fold change /veh ZSCAN30 (11745921_a_at) / RFU CMKLR1 (11741424_a_at) / Fold change /veh CMKLR1 (11741424_a_at) / RFU LOC101060620 /// MAPK8IP1 (11723275_at) / Fold change /veh LOC101060620 /// MAPK8IP1 (11723275_at) / RFU SPTSSB (11747773_x_at) / Fold change /veh SPTSSB (11747773_x_at) / RFU PRSS12 (11739890_at) / Fold change /veh PRSS12 (11739890_at) / RFU BIN1 (11741810_x_at) / Fold change /veh BIN1 (11741810_x_at) / RFU WNT11 (11732464_a_at) / Fold change /veh WNT11 (11732464_a_at) / RFU C10orf10 (11716521_a_at) / Fold change /veh C10orf10 (11716521_a_at) / RFU C5orf56 (11738089_at) / Fold change /veh C5orf56 (11738089_at) / RFU CYB561 (11721691_x_at) / Fold change /veh CYB561 (11721691_x_at) / RFU ANKRD19P (11752326_a_at) / Fold change /veh ANKRD19P (11752326_a_at) / RFU OR2T12 /// OR2T33 /// OR2T8 (11738714_s_at) / Fold change /veh OR2T12 /// OR2T33 /// OR2T8 (11738714_s_at) / RFU VCAN (11748164_a_at) / Fold change /veh VCAN (11748164_a_at) / RFU JSRP1 (11732532_at) / Fold change /veh JSRP1 (11732532_at) / RFU KRTAP10-11 (11738290_x_at) / Fold change /veh KRTAP10-11 (11738290_x_at) / RFU MYO3A (11730013_a_at) / Fold change /veh MYO3A (11730013_a_at) / RFU EBF3 (11725865_a_at) / Fold change /veh EBF3 (11725865_a_at) / RFU CAMK2N1 (11719241_x_at) / Fold change /veh CAMK2N1 (11719241_x_at) / RFU C5orf56 (11738088_a_at) / Fold change /veh C5orf56 (11738088_a_at) / RFU OLFML3 (11715873_a_at) / Fold change /veh OLFML3 (11715873_a_at) / RFU LOC100653217 /// NTM (11731650_a_at) / Fold change /veh LOC100653217 /// NTM (11731650_a_at) / RFU MAPK11 (11762145_a_at) / Fold change /veh MAPK11 (11762145_a_at) / RFU FIZ1 (11724087_x_at) / Fold change /veh FIZ1 (11724087_x_at) / RFU OASL (11726364_x_at) / Fold change /veh OASL (11726364_x_at) / RFU SOX15 (11748057_x_at) / Fold change /veh SOX15 (11748057_x_at) / RFU CD79A (11719716_a_at) / Fold change /veh CD79A (11719716_a_at) / RFU HIST1H1D (11736915_at) / Fold change /veh HIST1H1D (11736915_at) / RFU CASKIN2 (11723855_a_at) / Fold change /veh CASKIN2 (11723855_a_at) / RFU LOC730098 (11760151_x_at) / Fold change /veh LOC730098 (11760151_x_at) / RFU OR4N2 (11742367_at) / Fold change /veh OR4N2 (11742367_at) / RFU PRRT2 (11749266_a_at) / Fold change /veh PRRT2 (11749266_a_at) / RFU SNX32 (11753110_a_at) / Fold change /veh SNX32 (11753110_a_at) / RFU CDHR5 (11726645_a_at) / Fold change /veh CDHR5 (11726645_a_at) / RFU RCAN1 (11760418_a_at) / Fold change /veh RCAN1 (11760418_a_at) / RFU FAM167A (11723789_a_at) / Fold change /veh FAM167A (11723789_a_at) / RFU FAM26E (11764081_at) / Fold change /veh FAM26E (11764081_at) / RFU ISYNA1 (11749810_s_at) / Fold change /veh ISYNA1 (11749810_s_at) / RFU ACY1 (11761880_at) / Fold change /veh ACY1 (11761880_at) / RFU 11764098_at / Fold change /veh 11764098_at / RFU SAMD14 (11745864_x_at) / Fold change /veh SAMD14 (11745864_x_at) / RFU NPB (11741838_a_at) / Fold change /veh NPB (11741838_a_at) / RFU TMPRSS6 (11731388_a_at) / Fold change /veh TMPRSS6 (11731388_a_at) / RFU KRTAP10-2 (11738614_at) / Fold change /veh KRTAP10-2 (11738614_at) / RFU ARHGAP8 /// PRR5-ARHGAP8 (11727945_x_at) / Fold change /veh ARHGAP8 /// PRR5-ARHGAP8 (11727945_x_at) / RFU KRTAP5-7 /// NADSYN1 (11734609_at) / Fold change /veh KRTAP5-7 /// NADSYN1 (11734609_at) / RFU RASL12 (11751679_a_at) / Fold change /veh RASL12 (11751679_a_at) / RFU CDKN2B (11736163_a_at) / Fold change /veh CDKN2B (11736163_a_at) / RFU PRF1 (11729649_at) / Fold change /veh PRF1 (11729649_at) / RFU, ZNF638 /// ZNF638-IT1 / Fold change vs veh, ZNF638 /// ZNF638-IT1 / RFU, PANK3 / Fold change vs veh, PANK3 / RFU, SH3YL1 / Fold change vs veh, SH3YL1 / RFU, ZEB2 / Fold change vs veh, ZEB2 / RFU, NRIP1 / Fold change vs veh, NRIP1 / RFU, PTTG1IP / Fold change vs veh, PTTG1IP / RFU, CAPN2 / Fold change vs veh, CAPN2 / RFU, MED14 / Fold change vs veh, MED14 / RFU, SNORA58 / Fold change vs veh, SNORA58 / RFU, C1orf63 / Fold change vs veh, C1orf63 / RFU, LRRFIP1 / Fold change vs veh, LRRFIP1 / RFU, NDUFAF7 / Fold change vs veh, NDUFAF7 / RFU, SLC12A2 / Fold change vs veh, SLC12A2 / RFU, IBTK / Fold change vs veh, IBTK / RFU, ESF1 / Fold change vs veh, ESF1 / Fold change vs veh, TMEM50B / RFU, TAOK1 / Fold change vs veh, TAOK1 / RFU, ACBD3 / Fold change vs veh, ACBD3 / RFU, TMA16 / Fold change vs veh, TMA16 / RFU, RWDD3 / Fold change vs veh, RWDD3 / RFU, BCAT1 / Fold change vs veh, BCAT1 / RFU, EDEM3 / Fold change vs veh, EDEM3 / RFU, TMEM33 / Fold change vs veh, TMEM33 / RFU, WDR75 / Fold change vs veh, WDR75 / RFU, AHCTF1 / Fold change vs veh, AHCTF1 / RFU, TFRC / Fold change vs veh, TFRC / RFU, ZDHHC17 / Fold change vs veh, ZDHHC17 / RFU, NOM1 / Fold change vs veh, NOM1 / RFU, ARL8B / Fold change vs veh, ARL8B / RFU, ZBTB11 / Fold change vs veh, ZBTB11 / RFU, TAMM41 / Fold change vs veh, TAMM41 / RFU, KIAA1704 /// LOC100996395 / Fold change vs veh, KIAA1704 /// LOC100996395 / RFU, ING1 / Fold change vs veh, ING1 / RFU, TRMT61B / Fold change vs veh, TRMT61B / RFU, FUBP3 / Fold change vs veh, FUBP3 / RFU, TP53 / Fold change vs veh, TP53 / RFU, TNKS2 / Fold change vs veh, TNKS2 / RFU, ZFP14 / Fold change vs veh, ZFP14 / RFU, ACTR2 / Fold change vs veh, ACTR2 / RFU, PPP3R1 / Fold change vs veh, PPP3R1 / RFU, PIK3R1 / Fold change vs veh, PIK3R1 / RFU, HNRNPA1 / Fold change vs veh, HNRNPA1 / RFU, RNF170 / Fold change vs veh, RNF170 / RFU, ZNF28 / Fold change vs veh, ZNF28 / RFU, RNGTT / Fold change vs veh, RNGTT / RFU, OGT / Fold change vs veh, OGT / RFU, BRD1 / Fold change vs veh, BRD1 / RFU, MARS / Fold change vs veh, MARS / RFU, ZNF655 / Fold change vs veh, ZNF655 / RFU, FAHD1 / Fold change vs veh, FAHD1 / RFU, BDP1 / Fold change vs veh, BDP1 / RFU, LRRCC1 / Fold change vs veh, LRRCC1 / RFU, ARID1A / Fold change vs veh, ARID1A / RFU, ZNF146 / Fold change vs veh, ZNF146 / RFU, ZNF330 / Fold change vs veh, ZNF330 / RFU, GPN3 / Fold change vs veh, GPN3 / RFU, C9orf123 / Fold change vs veh, C9orf123 / RFU, N4BP2L2 / Fold change vs veh, N4BP2L2 / RFU, ARFIP1 / Fold change vs veh, ARFIP1 / RFU, FAM179B / Fold change vs veh, FAM179B / RFU, BCL10 / Fold change vs veh, BCL10 / RFU, UHRF1BP1L / Fold change vs veh, UHRF1BP1L / RFU, BET1 / Fold change vs veh, BET1 / RFU, CNOT2 / Fold change vs veh, CNOT2 / RFU, ZNF268 / Fold change vs veh, ZNF268 / Fold change vs veh, ZNF507 / RFU, DGCR2 / Fold change vs veh, DGCR2 / RFU, WDSUB1 / Fold change vs veh, WDSUB1 / Fold change vs veh, HSP90B1 /// MIR3652 / RFU, ADSS / Fold change vs veh, ADSS / RFU, GK / Fold change vs veh, GK / RFU, ZNF148 / Fold change vs veh, ZNF148 / RFU, TAF9 / Fold change vs veh, TAF9 / RFU, SLC1A5 / Fold change vs veh, SLC1A5 / RFU, SLMO2 / Fold change vs veh, SLMO2 / RFU, ABCC4 / Fold change vs veh, ABCC4 / RFU, LOC101060439 /// RAP1B / Fold change vs veh, LOC101060439 /// RAP1B / RFU, RFX7 / Fold change vs veh, RFX7 / RFU, GTPBP10 / Fold change vs veh, GTPBP10 / RFU, CNEP1R1 / Fold change vs veh, CNEP1R1 / RFU, BIVM-ERCC5 /// ERCC5 / Fold change vs veh, BIVM-ERCC5 /// ERCC5 / RFU, ILF3 / Fold change vs veh, ILF3 / RFU 11762660_at / Fold change /veh 11762660_at / RFU VCAN (11757783_s_at) / Fold change /veh VCAN (11757783_s_at) / RFU DDX43 (11728927_at) / Fold change /veh DDX43 (11728927_at) / RFU KRT8 (11758188_x_at) / Fold change /veh KRT8 (11758188_x_at) / RFU NKD1 (11759106_at) / Fold change /veh NKD1 (11759106_at) / RFU SRD5A1 (11742802_a_at) / Fold change /veh SRD5A1 (11742802_a_at) / RFU TPSAB1 /// TPSB2 (11721975_s_at) / Fold change /veh TPSAB1 /// TPSB2 (11721975_s_at) / RFU GSTM3 (11746129_a_at) / Fold change /veh GSTM3 (11746129_a_at) / RFU IL23R (11737362_x_at) / Fold change /veh IL23R (11737362_x_at) / RFU TMEM51 (11727254_a_at) / Fold change /veh TMEM51 (11727254_a_at) / RFU PIWIL2 (11732686_x_at) / Fold change /veh PIWIL2 (11732686_x_at) / RFU ORM1 (11744905_x_at) / Fold change /veh ORM1 (11744905_x_at) / RFU CCDC152 (11743942_at) / Fold change /veh CCDC152 (11743942_at) / RFU ECM1 (11717891_a_at) / Fold change /veh ECM1 (11717891_a_at) / RFU IL23R (11748794_a_at) / Fold change /veh IL23R (11748794_a_at) / RFU TNFAIP8L3 (11732012_x_at) / Fold change /veh TNFAIP8L3 (11732012_x_at) / RFU MBOAT4 (11741988_at) / Fold change /veh MBOAT4 (11741988_at) / RFU 11764193_at / Fold change /veh 11764193_at / RFU TMEM53 (11763286_at) / Fold change /veh TMEM53 (11763286_at) / RFU MAGEB2 (11727129_at) / Fold change /veh MAGEB2 (11727129_at) / RFU TMEM200A (11744735_a_at) / Fold change /veh TMEM200A (11744735_a_at) / RFU CCDC152 (11751479_a_at) / Fold change /veh CCDC152 (11751479_a_at) / RFU FAM211A (11726209_a_at) / Fold change /veh FAM211A (11726209_a_at) / RFU RGS16 (11746705_a_at) / Fold change /veh RGS16 (11746705_a_at) / RFU VCAN (11755009_s_at) / Fold change /veh VCAN (11755009_s_at) / RFU RHOB (11743442_s_at) / Fold change /veh RHOB (11743442_s_at) / RFU RGS16 (11720943_a_at) / Fold change /veh RGS16 (11720943_a_at) / RFU RGS16 (11720944_at) / Fold change /veh RGS16 (11720944_at) / RFU, VPS4B / Fold change vs veh, VPS4B / RFU, CREB1 / Fold change vs veh, CREB1 / RFU, DNAJC13 / Fold change vs veh, DNAJC13 / RFU, GNAQ / Fold change vs veh, GNAQ / RFU, CDK5R1 / Fold change vs veh, CDK5R1 / RFU, ZRANB3 / Fold change vs veh, ZRANB3 / RFU, CUL4A / Fold change vs veh, CUL4A / RFU, CCNY / Fold change vs veh, CCNY / RFU, UFL1 / Fold change vs veh, UFL1 / RFU, COG3 / Fold change vs veh, COG3 / RFU, DIAPH2 / Fold change vs veh, DIAPH2 / RFU, SKA2 / Fold change vs veh, SKA2 / RFU, AFF3 / Fold change vs veh, AFF3 / RFU, LMF1 / Fold change vs veh, LMF1 / RFU, IPO11 / Fold change vs veh, IPO11 / RFU, DFFB / Fold change vs veh, DFFB / RFU, FOXP1 / Fold change vs veh, FOXP1 / RFU, CARD8 / Fold change vs veh, CARD8 / RFU, STRN3 / Fold change vs veh, STRN3 / RFU, ADK / Fold change vs veh, ADK / RFU, RASSF2 / Fold change vs veh, RASSF2 / RFU, WIPF1 / Fold change vs veh, WIPF1 / RFU, LARP1B / Fold change vs veh, LARP1B / RFU, RASA1 / Fold change vs veh, RASA1 / RFU, RB1 / Fold change vs veh, RB1 / RFU, PPFIA1 / Fold change vs veh, PPFIA1 / RFU, MAT2A / Fold change vs veh, MAT2A / RFU, CCT5 / Fold change vs veh, CCT5 / RFU, WDR92 / Fold change vs veh, WDR92 / RFU, CUX1 / Fold change vs veh, CUX1 / RFU, TTC7A / Fold change vs veh, TTC7A / RFU, TMEM135 / Fold change vs veh, TMEM135 / RFU, DEPTOR / Fold change vs veh, DEPTOR / RFU, CPM / Fold change vs veh, CPM / RFU, DNAJB6 / Fold change vs veh, DNAJB6 / RFU, CACNA2D3 / Fold change vs veh, CACNA2D3 / RFU, DTX4 / Fold change vs veh, DTX4 / RFU, TFCP2 / Fold change vs veh, TFCP2 / RFU, GMCL1 /// GMCL1P1 / Fold change vs veh, GMCL1 /// GMCL1P1 / RFU, AEBP2 / Fold change vs veh, AEBP2 / RFU, SNHG1 /// SNORD22 /// SNORD25 /// SNORD26 /// SNORD27 /// SNORD28 /// SNORD29 /// SNORD31 / Fold change vs veh, SNHG1 /// SNORD22 /// SNORD25 /// SNORD26 /// SNORD27 /// SNORD28 /// SNORD29 /// SNORD31 / Fold change (Aza/veh), C12orf56 (ProbeSet 11735607_a_at) / Fold change (ACY-1035/veh), C12orf56 (ProbeSet 11735607_a_at) / Fold change (Aza/veh), FGFR1OP (ProbeSet 11751329_s_at) / Fold change (ACY-1035/veh), FGFR1OP (ProbeSet 11751329_s_at) / Fold change (Aza/veh), VPS36 (ProbeSet 11739960_a_at) / Fold change (ACY-1035/veh), VPS36 (ProbeSet 11739960_a_at) / RFU SYPL1 (11715823_x_at) / Fold change /veh SYPL1 (11715823_x_at) / RFU IGFBP7 (11715501_s_at) / Fold change /veh IGFBP7 (11715501_s_at) / RFU REEP3 (11722064_at) / Fold change /veh REEP3 (11722064_at) / RFU IGLL1 (11728026_x_at) / Fold change /veh IGLL1 (11728026_x_at): dose or concentration left out as unconfirmed", "details": "MV-4-11 cells, 48 hours", "data": [{"smiles": "Nc1ccc(-c2cccs2)cc1NC(=O)c1ccc2c(c1)cc(C1CC1)n2CCN1CCOCC1", "note": "[ACY-1035]", "values": [{"measurement": "Fold change /veh TMPRSS4 (11747572_a_at)", "result": 1.09}]}]}
